In ChEMBL document CHEMBL1158848, “Synthesis and separation of potential anticancer active dihalocephalomannine diastereomers from extracts of Taxus yunnanensis” (1998):

Assay: Cytotoxicity against human NCI60 cells
Type: functional

Structure (SMILES)	GI50 [µM]	LC50 (50% lethal concentration) [µM]	TGI [µM]
CC(=O)O[C@H]1C(=O)[C@@]2(C)[C@H]([C@H](OC(=O)c3ccccc3)[C@]3(O)C[C@H](OC(=O)[C@H](O)[C@@H](NC(=O)[C@@](C)(Cl)[C@H](C)Cl)c4ccccc4)C(C)=C1C3(C)C)[C@]1(OC(C)=O)CO[C@@H]1C[C@@H]2O	0.21	32	6.3
CC(=O)O[C@H]1C(=O)[C@@]2(C)[C@H]([C@H](OC(=O)c3ccccc3)[C@]3(O)C[C@H](OC(=O)[C@H](O)[C@@H](NC(=O)c4ccccc4)c4ccccc4)C(C)=C1C3(C)C)[C@]1(OC(C)=O)CO[C@@H]1C[C@@H]2O [PACLITAXEL]	0.00065		0.15
CC(=O)O[C@H]1C(=O)[C@@]2(C)[C@H]([C@H](OC(=O)c3ccccc3)[C@]3(O)C[C@H](OC(=O)[C@H](O)[C@@H](NC(=O)[C@](C)(Cl)[C@@H](C)Cl)c4ccccc4)C(C)=C1C3(C)C)[C@]1(OC(C)=O)CO[C@@H]1C[C@@H]2O	0.14	29	4.2
